# Laboratory results taken from publication PMC10016038, “Enhanced Endosomal Signaling and Desensitization of GLP-1R vs GIPR in Pancreatic Beta Cells” (Endocrinology, 2023).
# Ends that are not written are not given here.
# Columns and labels:
# SNAP-tagged human GIPR [1] = experiment: Confocal microscopy of co-internalization with FITC agonist, SNAP-GIPR; format: cell-based
# Excerpt: (§1) Figure 1. Beta cell GLP-1R vs GIPR trafficking patterns. […] (B) Rates of GLP-1R vs GIPR internalization (k values) derived from (A) by one-phase association (with Y0 = 0) of baseline-deleted DERET data; n = 5. (C) GLP-1R vs GIPR internalization dose response curves measured by high-content microscopy assay (HCA) in the same cells as above. […] (F) Quantification of surface GLP-1R vs GIPR levels in WT mouse islets using fluorescent agonist uptake data from (E); data corrected for binding affinity differences between both agonists; n = 4. (G) GLP-1R vs GIPR recycling dose response curves measured by high-content microscopy assay (HCA) in cells from (C); n = 5. […] Nuclei (DAPI), blue. Data are mean ± SEM, compared by paired or unpaired t tests, or two-way ANOVA with Sidak's post hoc test; *P < .05, **P < .01, ***P < .001; size bars: 10 µm.
# (§2) Finally, using alternative fluorescent conjugates labeled with TMR, the amount of TMR-labeled agonist intracellular accumulation during the first 5 minutes of stimulation for each receptor correlated with the previously shown receptor internalization results in INS-1 832/3 SNAP-GLP-1R/SNAP-GIPR cell lines (Supplemental Fig. 3A and 3B) ([32]).
# [2] = tested on: endogenous GIPR in mouse islets; experiment: Confocal imaging of TMR agonist in mouse primary islets, GIPR; format: cell-based
# Protocol: (§3) Nondiabetic mice of both sexes were used for islet isolation. Briefly, pancreata were infused via the common bile duct with RPMI-1640 medium containing 1 mg/mL collagenase from Clostridium histolyticum (Nordmark Biochemicals), dissected, and incubated in a water bath at 37 °C for 10 minutes. Islets were subsequently washed and purified using a Histopaque gradient (Histopaque-1119, 11191, Sigma-Aldrich, and Histopaque-1083, 10831, Sigma-Aldrich). Isolated islets were allowed to recover overnight at 37 °C in 5% CO2 in RPMI-1640 supplemented with 10% FBS and 1% penicillin/streptomycin. All procedures were carried out in accordance with the regulations of the UK Home Office Animals (Scientific Procedures) Act and the Imperial College London guidelines for animal care. Animal protocols were approved by the Home Office Animals in Science Regulation Unit (ASRU) under Project License number PP7151519 to Dr. A. Martinez-Sanchez.
# as §1
# SNAP-tagged human GIPR [3] = experiment: TMR agonist intracellular accumulation, INS-1 832/3 SNAP-GIPR; format: cell-based; settings: 5 minutes poststimulation
# Protocol: as §2
# GLP-1R = settings: tirzepatide; cited from earlier work
# Excerpt: In summary, we have described here significant differences in the trafficking and spatiotemporal signaling propensities of the 2 incretin receptors following their stimulation with native agonists in beta cells. While the GLP-1R is a rapidly internalizing receptor with increased propensity for β-arrestin 2 recruitment, endosomal localization and activity, and lysosomal degradation, the GIPR is associated with reduced coupling to G proteins and β-arrestin 2, as well as reduced internalization and endosomal activity, increased recycling, and an overall increase in beta cell signaling despite hig ...
# T2D patients = settings: dual GLP-1R/GIPR targeting peptides; cited from earlier work
# Excerpt: Incretin receptors, comprising the glucagon-like peptide-1 receptor (GLP-1R) and the glucose-dependent insulinotropic polypeptide receptor (GIPR), are key components of the glucoregulatory system due to their capacity to prevent postprandial hyperglycemia by amplifying insulin secretion from pancreatic beta cells in a glucose-dependent manner ([1]). Since their discovery and cloning in the 1990s ([2-4]), both receptors have been recognized for their glucose lowering potential. However, while the GLP-1R has successfully been exploited for the treatment of type 2 diabetes (T2D), with several pha ...
# [4] = tested on: endogenous GLP-1R in mouse islets; experiment: Confocal imaging of TMR agonist in mouse primary islets, GLP-1R; format: cell-based; settings: 100 nM GLP-1-TMR; 15 minutes
# Protocol: as §3
# Figure 1. […] (C) GLP-1R vs GIPR internalization dose response curves measured by high-content microscopy assay (HCA) in the same cells as above. […] (F) Quantification of surface GLP-1R vs GIPR levels in WT mouse islets using fluorescent agonist uptake data from (E); data corrected for binding affinity differences between both agonists; n = 4. (G) GLP-1R vs GIPR recycling dose response curves measured by high-content microscopy assay (HCA) in cells from (C); n = 5. […]
substance,measurement,setting,value
"GIP-FITC: fluorescein isothiocyanate (FITC) conjugate of GIP(1-42) (YAEGTFISDYSIAMDKIHQQDFVNWLLAQKGKKNDWKHNITQ; also: FITC conjugate, position not given here)",SNAP-GIPR endocytosis,"SNAP-tagged human GIPR [1]; 30 min, 100 nM GIP-FITC",only partial SNAP-GIPR endocytosis
same,Intracellular GIP-FITC signal accumulation,SNAP-tagged human GIPR [1]; after 30 minutes of agonist stimulation,some intracellular GIP-FITC signal accumulation
"GIP-TMR: tetramethylrhodamine (TMR) conjugate of GIP(1-42) (YAEGTFISDYSIAMDKIHQQDFVNWLLAQKGKKNDWKHNITQ; also: TMR conjugate, position not given here)",GIP-TMR signal in islets at 100 nM,"[2]; 100 nM, not shown",virtually undetectable
same,Localization of TMR agonist in WT mouse primary islets,"[2]; 1 µM GIP-TMR, 15 minutes",could be detected at the plasma membrane
same,"GIP-TMR uptake compared with GLP-1-TMR, dispersed mouse islet cells",[2]; dispersed mouse islet cells,markedly reduced
same,"TMR agonist signal in WT islets, GIP-TMR vs GLP-1-TMR","[2]; quantified in Fig. 1F, corrected for binding affinity differences, n = 4",significantly lower
same,"GIP-TMR signal at the plasma membrane, Gipr-/- (KO) islets","[2]; same concentration of GIP-TMR as WT (1 µM), specificity control",absent
same,Intracellular accumulation of TMR-labeled agonist,SNAP-tagged human GIPR [3],negligible
tirzepatide,Internalization and β-arrestin 2 recruitment at the GLP-1R,GLP-1R,reduced internalization and β-arrestin 2 recruitment at the GLP-1R
same,Efficacy compared with approved GLP-1R agonist monotherapies,T2D patients,enhanced efficacy
"GLP-1-TMR: tetramethylrhodamine (TMR) conjugate of GLP-1(7-36)NH2 (HAEGTFTSDVSSYLEGQAAKEFIAWLVKGR-NH2; also: TMR conjugate, position not given here)",Localization of TMR agonist in WT mouse primary islets,[4],predominantly localized in punctate structures reminiscent of endosomes
